# From patent US20090186100A1, “MEDICAMENT FOR ANTI-AGING SKIN CARE AND WOUND HEALING AND USE THEREOF” (SAGITTARIUS LIFE SCIENCE CORP., priority 2008, published 2009)
# Tests used:
# [1] = Free radical scavenger, SOD mimetic activity (xanthine/xanthine oxidase/NBT); type: biochemical; details: 6.1 μM
# Method: SS304L or vehicle was incubated with 0.12 mM xanthine, 6 mU xanthine oxidase, 27 μM nitroblue tetrazolium (NBT), 0.11 mM EDTA, 0.005% bovine serum albumin and Na2CO3 at pH 10.5 at 25° C. for 20 minutes. Conversion of xanthine to uric acid +O^−+NBT to formazan was then determined by measurement of absorbance at 595 nm and percent inhibition by superoxide dismutase or SS304L was calculated.
# [2] = test system: Human dermal fibroblasts (HFB); experiment: HFB proliferation (MTT); type: cell-based; details: 72 hours; for Mean OD: MTT A570
# Method: Human dermal fibroblasts (HFB) were cultured from foreskin with consent by cell emigration from ˜1 mm^3 skin pieces in DMEM+1 mM sodium pyruvate+2 mM glutamine+100 U/ml penicillin+100 ug/ml streptomycin+10% fetal calf serum (FCS) (C-DMEM) under humidified atmosphere containing 5% CO2 at 37° C.
# 1×10^4 HFB were seeded in a 96 multi-well culture dish. 48 hours later, the cells were treated with various concentrations of SS304L in C-DMEM under humidified atmosphere containing 5% CO2 at 37° C. The cells were exposed to drugs for 72 hours, and then treated with 0.5 mg/ml MTT for 4 hours at 37° C. The reduced formazan was dissolved in isopropanol containing 0.04 N HCl, and measured at A570 nm by an ELISA reader (Molecular Device).
# Human recombinant COX II = biological target: T1, Human recombinant COX II (Homo sapiens, UniProt P35354); experiment: Inhibition of cyclooxygenase II; type: biochemical
# T1 construct: purchased Sigma C-0858; host or cells: Sf21 insect cells
# T1 sequence (P35354 18-604): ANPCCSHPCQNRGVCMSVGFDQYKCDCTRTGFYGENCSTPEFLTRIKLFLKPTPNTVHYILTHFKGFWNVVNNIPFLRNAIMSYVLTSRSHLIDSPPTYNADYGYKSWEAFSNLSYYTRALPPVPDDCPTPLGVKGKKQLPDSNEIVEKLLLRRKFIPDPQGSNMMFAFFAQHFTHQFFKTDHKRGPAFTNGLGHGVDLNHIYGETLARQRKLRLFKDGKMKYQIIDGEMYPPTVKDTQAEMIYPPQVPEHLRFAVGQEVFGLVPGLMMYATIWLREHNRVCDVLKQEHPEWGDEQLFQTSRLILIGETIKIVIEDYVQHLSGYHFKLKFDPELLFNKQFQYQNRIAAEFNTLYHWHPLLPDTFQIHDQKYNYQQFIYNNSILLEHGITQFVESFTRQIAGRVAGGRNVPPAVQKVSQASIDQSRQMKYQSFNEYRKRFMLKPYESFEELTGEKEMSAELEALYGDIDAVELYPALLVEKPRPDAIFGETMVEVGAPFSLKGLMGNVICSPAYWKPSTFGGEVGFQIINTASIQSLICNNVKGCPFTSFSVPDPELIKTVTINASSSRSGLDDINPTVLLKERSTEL
# Method: SS304L or vehicle was […] with 0.11 U enzyme, 1 mM reduced glutathione, 500 μM phenol and 1 μM hematin in Tris-HCl, pH 7.7 at 37° C. for 15 minutes. 0.3 μM arachidonic acid as substrate was added and the reaction was terminated by addition of 1 N HCl after 5 minutes. The converted PGE2 was measured by an Amersham EIA kit following centrifugation. SS304L was assayed at 10 and 100 μg/ml.
# [3] = test system: full thickness excision wounds; experiment: Full thickness excision wound healing in mice; type: in vivo, Aging male ICR mice
# Method: Aging male ICR mice at body weights of 40 to 50 grams (Age: 14 to 16 weeks) were lightly anesthetized with ether. 0.7 mm in diameter full thickness excisions were conducted at the dorsal back skin after shaving and 70% ethanol sterilization. Immediately after excision, the wounds were covered with either vehicle (sterile 1% carboxymethyl cellulose, 25 μl) at first wound site of all mice, and with 1% arginine, 0.1% S[…], or 1% S[…] at the second wound site. Each group contained 4 to 6 mice. The drugs were applied on the day of photography (Day 0, 1, 2, 3, 4, 7, 10, 14, 18). The areas of the wounds and the rates and qualities of healing were compared at each time point. Arginine was used as comparison due to the similarity of part of its action mechanisms to S[…].
compound,measurement,setting,value
O=C(O[C@@H]1Cc2c(O)cc(O)cc2O[C@@H]1c1ccc(O)c(O)c1)c1cc(O)c(O)c(O)c1 [(−)-Epicatechin gallate],Inhibition (%),[1],50%
C[C@]12CC[C@@H]3c4ccc(O)cc4CC[C@H]3[C@@H]1CC[C@@H]2O [Estradiol],Inc. (%.),[2]; Estradiol 1 nM,−4%
same,Mean OD,[2]; Estradiol 1 nM,0.131
same,Inc. (%.),[2]; Estradiol 3 nM,4%
same,Mean OD,[2]; Estradiol 3 nM,0.139
same,Inc. (%.),[2]; Estradiol 10 nM,2%
same,Mean OD,[2]; Estradiol 10 nM,0.137
same,Inc. (%.),[2]; Estradiol 30 nM,−3%
same,Mean OD,[2]; Estradiol 30 nM,0.132
same,Inc. (%.),[2]; Estradiol 100 nM,−4%
same,Mean OD,[2]; Estradiol 100 nM,0.131
CS(=O)(=O)Nc1ccc([N+](=O)[O-])cc1Oc1ccccc1 [Nimesulide],inhibition at 1 µM,Human recombinant COX II,50%
N=C(N)NCCC[C@H](N)C(=O)O [arginine],Inflammation of wounds,"[3]; day 3 post wounding, topical",no apparent sign of inflammation
same,Re-epithelization/granulation process,"[3]; day 7, topical",significantly facilitated
same,Unhealed wound areas compared to the areas of the vehicle treated wounds (fraction),"[3]; day 10, applied at 1%",⅓ to ½
same,Healing of wounds,"[3]; day 14, topical",completely healed
Vitamin A,Inc. (%),[2]; Vitamin A 0.1 uM,−7%
same,Mean OD,[2]; Vitamin A 0.1 uM,0.128
same,Inc. (%),[2]; Vitamin A 0.3 uM,−4%
same,Mean OD,[2]; Vitamin A 0.3 uM,0.131
same,Inc. (%),[2]; Vitamin A 1 uM,−4%
same,Mean OD,[2]; Vitamin A 1 uM,0.131
same,Inc. (%),[2]; Vitamin A 3 uM,−12%
same,Mean OD,[2]; Vitamin A 3 uM,0.124
same,Inc. (%),[2]; Vitamin A 10 uM,−6%
same,Mean OD,[2]; Vitamin A 10 uM,0.129
Vitamin E,Inc. (%.),[2]; Vitamin E 3 uM,0%
same,Mean OD,[2]; Vitamin E 3 uM,0.135
same,Inc. (%.),[2]; Vitamin E 10 uM,9%
same,Mean OD,[2]; Vitamin E 10 uM,0.144
same,Inc. (%.),[2]; Vitamin E 30 uM,−4%
same,Mean OD,[2]; Vitamin E 30 uM,0.131
same,Inc. (%.),[2]; Vitamin E 100 uM,−9%
same,Mean OD,[2]; Vitamin E 100 uM,0.126
same,Inc. (%.),[2]; Vitamin E 300 uM,−16%
same,Mean OD,[2]; Vitamin E 300 uM,0.120
